Key:
[1] = tested on: BxPC-3; experiment: MTT cell viability assay in BxPC-3 pancreatic cancer cells; format: cell-based; conditions: Homo sapiens; BxPC-3 cells; read-out: IC50 values of cell death
[2] = tested on: γ-Syn; experiment: Western blot of γ-Syn levels in T47D cells; format: cell-based; conditions: for decrease of γ-Syn levels: 48 h pretreatment, Western blot
Protocol: Various cancer cell lines were tested for expression of γ-Syn by Western blots. (FIG. 4) Two breast carcinoma cell lines were tested for γ-Syn expression by Western blots, and human brain (hIFG) was used as a positive control.

[3] = tested on: WKY rats; experiment: Depression model, behavior of WKY rats; format: in vivo, rat; conditions: for mobility and climbing behaviors: WKY rats, chronic administration, FIG. 1
[4] = tested on: WKY rats; conditions: rat depression model, Jeannotte et al. 2009; cited from earlier work
[5] = tested on: SK-BR-3; experiment: MTT cell viability assay in SK-BR-3 cells; format: cell-based; conditions: Homo sapiens, read-out: IC50 values of cell death
[6] = tested on: DU145; experiment: MTT cell viability assay in DU145 cells; format: cell-based; conditions: Homo sapiens, DU-145, read-out: IC50 values of cell death
[7] = tested on: Colo-357; experiment: MTT cell viability assay in Colo-357 pancreatic cancer cells; format: cell-based; conditions: Homo sapiens, COLO357; Colo-357 cells; read-out: IC50 values of cell death
[8] = tested on: γ-Syn; experiment: γ-Syn protein expression in selected γ-Syn expressing cells; format: cell-based; conditions: 48 h
Description: Cells were selected that expressed γ-Syn. […] We next measured cell death by MTT assays and found a direct correlation between loss of γ-Syn protein expression and cell death.

[9] = tested on: γ-Syn; experiment: Western blot of γ-Syn protein in brain of WKY rats; format: in vivo, rat; conditions: brains of WKY rats, FIG. 3
Description: In brain, γ-Syn is expressed in presynaptic terminals of monoaminergic neurons, and our lab has shown that this protein can regulate the function of norepinephrine and serotonin transporters. Unlike α-Syn, whose role in neurodegenerative diseases such as Parkinson's disease is well established, a role for γ-Syn in neurodegeneration is not known. γ-Syn is overexpressed in the frontal cortex of the WKY, a rat model of depression. […] The ability of γ-Syn to bind tightly to MTs may be one mechanism by which its overexpression in carcinomas protects cells from the MT actions of chemotherapeutic agents, for example, taxol, nocodazole, vinblastine and colchicine.

[10] = tested on: γ-Syn; conditions: rat depression model, Jeannotte et al. 2009; cited from earlier work
[11] = tested on: cells that did not express any γ-Syn; experiment: MTT cell death assay in cells that do not express γ-Syn; format: cell-based; conditions: cells without γ-Syn expression, 50 μM DMI
[12] = tested on: HCT 116; experiment: MTT cell viability assay in HCT 116 cells; format: cell-based; conditions: Homo sapiens, read-out: IC50 values of cell death
[13] = tested on: ASPC-1; experiment: MTT cell viability assay in ASPC-1 pancreatic cancer cells; format: cell-based; conditions: Homo sapiens, ASPC1; ASPC-1 cells; read-out: IC50 values of cell death
[14] = tested on: cells that expressed γ-Syn; experiment: MTT cell death assay in cells that express γ-Syn; format: cell-based
Description: Cells were selected that expressed γ-Syn.

[15] = tested on: PC cells; format: cell-based; conditions: DMI at clinically relevant concentrations
[16] = tested on: MD-MB-231; experiment: MTT cell viability assay in MD-MB-231 cells; format: cell-based; conditions: read-out: IC50 values of cell death
[17] = tested on: A549; experiment: MTT cell viability assay in A549 cells; format: cell-based; conditions: Homo sapiens, read-out: IC50 values of cell death
[18] = tested on: γ-Syn; experiment: γ-Syn expression in pancreatic cancer (PC) cells; format: cell-based; conditions: clinically relevant concentrations
[19] = tested on: HT-29; experiment: MTT cell viability assay in HT-29 cells; format: cell-based; conditions: Homo sapiens, read-out: IC50 values of cell death
[20] = tested on: HeLa; experiment: MTT cell viability assay in HeLa cells; format: cell-based; conditions: Homo sapiens, read-out: IC50 values of cell death
[21] = tested on: T47D cells; experiment: MTT cell viability assay in T47D breast cancer cells
[22] = T47D cells, 48 h, 25 μM single agent, MTT

In the case of `CNCCCN1c2ccccc2CCc2ccccc21` [DMI, desipramine], the IC50 [1] is reported as over 50 µM, the “γ-Syn levels (in words)” value ([2]; 10 μM and 50 μM) is reported as “reduces γ-Syn levels” and the “decrease of γ-Syn levels” value ([2]; 10 μM DMI) is reported as 40%. For the same compound, the “decrease of γ-Syn levels” value ([2]; 50 μM DMI) was 85%, the depressive symptoms ([3]; WKY rat, chronic treatment for 2 weeks) was “relief in the depressive symptoms” and the “mobility and climbing behaviors” value [3] was “improvements in mobility and climbing behaviors”. For the same compound, the depressive state [4] was “relieves their depressive state”, the IC50 [5] was 40 µM and the IC50 [6] was over 50 µM. The IC50 [7] was over 50 µM, the “γ-Syn protein expression (in words)” value ([8]; 0-50 μM DMI) was “dose-dependent decrease in γ-Syn protein expression” and the “γ-Syn protein expression decreased” value ([8]; 50 μM DMI) was over 85%. For the same compound, the “γ-Syn protein levels (Western blot)” value [9] was “reduced levels of γ-Syn protein”, the “γ-Syn protein levels (Western blot)” value ([9]; listed as desipramine) was “reduced” and the “expression levels of γ-Syn” value [10] was “reduces expression levels of γ-Syn”. For the same compound, the “cell death (in words)” value [11] was “no cell death”, the IC50 [12] was 43 ± 3 µM and the IC50 [13] was over 50 µM. For the same compound, the cell death ([14]; each compound used alone) was about 15%, the cell death ([14]; γ-Syn expressing cells, 50 μM DMI, MTT) was over 90% and the cell death [15] was over 60%. For the same compound, the IC50 [16] was over 50 µM, the IC50 [17] was over 50 µM and the “γ-Syn expression (in words)” value [18] was “reduce γ-Syn expression”. For the same compound, the IC50 [19] was 38 µM, the IC50 [20] was 43 µM and the cell viability ([21]; 10 μM of either drug alone) was about 80%. For the same compound, the cell viability [21, 22] was 58%, the cell viability ([21]; T47D cells, 48 h, 50 μM DMI alone, MTT (data not shown)) was about 5% and the IC50 ([21]; read-out: IC50 values of cell death, T47D cells) was 35 µM.

In the case of `NNCCc1ccccc1` [phenelezine], the “mobility and climbing behaviors” value [3] is reported as “improvements in mobility and climbing behaviors”.

For `CC(=O)O[C@H]1C(=O)[C@@]2(C)[C@H]([C@H](OC(=O)c3ccccc3)[C@]3(O)C[C@H](OC(=O)[C@H](O)[C@@H](NC(=O)c4ccccc4)c4ccccc4)C(C)=C1C3(C)C)[C@]1(OC(C)=O)CO[C@@H]1C[C@@H]2O` [taxol, Paclitaxel], the cell death ([14]; each compound used alone) was about 15%, the cell viability ([21]; 10 μM of either drug alone) was about 80% and the “sensitivity of cells to taxol (in words)” value ([21]; T47D cells expressing γ-Syn) was “resistant to taxol treatment”. It also gave a cell viability [21, 22] of 52%.

Reference: patent US20140243319A1, “TREATMENTS TARGETING GAMMA-SYNUCLEIN EXPRESSION LEVELS” (GEORGETOWN UNIVERSITY, priority 2011, published 2014)
